In patent EP0489933A1, “BILE ALCOHOL AND DRUG CONTAINING THE SAME AS ACTIVE INGREDIENT” (TSUMURA CO., LTD., priority 1990, dated 1992):
Read-outs that look alike come from different tables or passages of the source.

How the values were obtained:
male mice of ddY line [1] = experiment: Survival time under hypoxia (aeration with 96% nitrogen and 4% oxygen); assay type: in vivo; conditions: 50 mg/kg, i.p., 60 minutes before aeration with 96% nitrogen and 4% oxygen; time to respiratory arrest
Procedure: In this experiment, 5 to 6-week-old male mice of ddY line (10 individuals per one group) were used after fasting treatment for 24 hours.
Each compound obtained in the present invention was administered intraperitoneally. After 60 minutes of the administration, each mouse was transferred separately into a transparent vessel (capacity, 1,000 ml) equipped with an air exit, and the vessel was aerated with a mixed gas consisting of 96% nitrogen and 4% oxygen at an aeration rate of 5 ℓ/min.
All tested mice died within 180 seconds after the commencement of the gas mixture aeration. Terminal respiration was observed several times prior to the respiratory arrest. Survival time of the control group was roughly in the range of from 96 to 111 seconds.

male mice of ddY line [2] = assay type: in vivo; conditions: 50 mg/kg, i.p., 60 minutes before KCN (3.0 mg/kg) tail intravenous injection; for Survival Time ±S.E.: time to respiratory arrest
male mice of ddY line [3] = experiment: Blood oxygen and carbon dioxide partial pressure; assay type: in vivo; conditions: 20 mg/kg, i.p.; blood from abdominal aorta 60 minutes after administration
Procedure: In this experiment, 4-week-old male mice of ddY line (10 individuals per one group) were used after fasting treatment for 24 hours.
After 60 minutes of the administration of each compound of the present invention, each mouse was subjected to ventrotomy under anesthesia with Nembutal® (Dainabot Co., Ltd.; 50 mg/kg, i.p.) to collect blood from abdominal aorta, and the collected blood sample was immediately checked for its oxygen partial pressure (PO₂) and carbon dioxide partial pressure (PCO₂) using a blood-aerotonometer (Model 170, Ciba-Corning).

male rats of SD line = experiment: High cholesterol feed: blood viscosity, serum total cholesterol, triglyceride, GOT; assay type: in vivo; conditions: 100 mg/kg/day, p.o., 4 days
Procedure: In this experiment, 5-week-old male rats of SD line (5 individuals per one group) were used after rearing them for 1 week using normal feed, and each compound of the present invention (100 mg/kg) was administered orally once a day for 4 days. Simultaneously with the commencement of the administration, the normal feed was replaced by a high cholesterol feed. After completion of the administration, they were subjected to fasting treatment for 24 hours. Thereafter, each rat was subjected to ventrotomy under anesthesia with Nembutal® (Dainabot Co., Ltd.; 50 mg/kg, i.p.) to collect blood from abdominal aorta, and the collected blood sample was checked for its blood viscosity using a viscometer (Biolyzer, Tokyo Keiki Co., Ltd.). At the same time, total cholesterol (Wako Pure Chemical Industries, Ltd.; Cholesterol E-test wako), triglyceride (Wako Pure Chemical Industries, Ltd.; Triglyceride G-test wako) and GOT (Wako Pure Chemical Industries, Ltd.; GOT-UV test-wako) in serum samples were measured.

[4] = tested on: rats of diabetes mellitus; experiment: Blood sugar level in streptozotocin-induced diabetes mellitus; assay type: in vivo, male rats of Wistar line; conditions: 50 mg/kg, i.o.; administered for 1 week beginning 1 week after streptozotocin (40 mg/kg); serum
Procedure: In this experiment, 8-week-old male rats of Wistar line (5 individuals per one group) were used after rearing them for 1 week with normal feed. Streptozotocin (40 mg/kg) was administered by tail intravenous injection to obtain rats of diabetes mellitus. Beginning after 1 week of the streptozotocin administration, oral administration of each test drug has been carried out for 1 week, followed by 24 hours of fasting. Thereafter, blood sample was collected from lower abdominal vena cava under anesthesia with Nembutal® (1 ml/kg, i.p.). Serum samples were prepared from the thus collected blood samples and checked for their blood sugar levels, with the results shown in Table 9.

male rats of SHR line = experiment: Blood pressure in SHR rats; assay type: in vivo; conditions: 10 mg/kg, p.o., 2 weeks
Procedure: In this experiment, 12-week-old male rats of SHR line (5 to 6 individuals per one group) were used after rearing them for 1 week with normal feed. Oral administration of each test drug has been carried out for 2 weeks and then blood pressure (mmHg) was measured using a small animal hemomanometer (UR-1000).

erythrocytes = experiment: Erythrocyte deformability (filtration through 5 µm filter) after oral administration; assay type: in vivo, male rats of Wistar line; conditions: 30 mg/kg, p.o.; blood collected 90 minutes after administration; number of filtered erythrocytes
Procedure: In this experiment, 9-week-old male rats of Wistar line (5 to 6 individuals per one group) were used after rearing them for 1 week with normal feed. After 24 hours of fasting, each test drug was administered orally and, 90 minutes thereafter, blood sample was collected from lower abdominal vena cava of each rat under anesthesia with Nembutal® (1 ml/kg, i.p.). Blood samples obtained in this way were checked for their blood clotting time and erythrocyte deformability.
Measuring procedures are as follows.
Erythrocyte deformability ... The collected blood is extruded from a syringe with a constant flow of He in a holder equipped with a filter (5 µm). Weight of blood and the number of erythrocytes filtered during a fixed time are measured and the deformability is expressed based on the number of filtered erythrocytes. The results of these measurements are shown respectively in Tables 11 and 12.

male SD rats = experiment: Thrombus formation in abdominal vena cava; assay type: in vivo; conditions: 30 mg/kg, p.o.; dry weight of thrombus
Procedure: Each of male SD rats of 130 to 210 g in body weight was anesthetized with Nembutal® (50 mg/kg, i.p.) and subjected to median incision ventrotomy to release about a 2 cm portion of abdominal vena cava below the renal vein. Blood flow of the thus released vena cava was temporarily stopped for 5 minutes with 8 hemostatic clips. After recirculating blood for 5 minutes by removing the hemostatic clips, […] was ligated at a position just below the renal vein and the median-incised part was sutured. Two hours after the ligature, the thus treated rat was again subjected to ventrotomy to excise abdominal vena cava. The thus excised blood vessel was cut open on a filter paper which had been moistened with physiological saline, in order to take out thrombus. The thrombus thus obtained was washed with physiological saline to remove adhered blood and the like substances and then dried at 80°C for 12 hours or longer to measure its dry weight. In this instance, each drug to be tested was orally administered 90 minutes before the clipping to examine its effect by single administration on the formation of thrombus. Separately from this, each test drug was administered to 6-week-old male SD rat continuously for 7 days, thrombus was prepared in the eighth day in the same manner as described above and dry weight of the thrombus was measured, in order to examine effect of the continuous 7 day administration on the thrombus formation.

Compound	Survival Time ±S.E. (male mice of ddY line [1])	Lethality (%) (male mice of ddY line [2])	Survival Time ±S.E. (male mice of ddY line [2])	Carbon Dioxide Partial Pressure (male mice of ddY line [3])	Oxygen Partial Pressure (male mice of ddY line [3])	GOT ±S.E. (male rats of SD line)	Total Cholesterol ±S.E. (male rats of SD line)	Triglyceride ±S.E. (male rats of SD line)	Blood Sugar Level ± S.E. [4]	Blood Pressure ±S.E. Average (male rats of SHR line)	Blood Pressure ±S.E. Maximum (male rats of SHR line)	Erythrocyte Deformation: Erythrocyte counts ±S.E. (erythrocytes)	Antithrombotic Effect: Thrombus weight ±S.E. (male SD rats)
C[C@H](CC[C@H](O)[C@@H](C)CO)[C@H]1CC[C@H]2[C@@H]3[C@H](O)C[C@@H]4C[C@H](O)CC[C@]4(C)[C@H]3C[C@H](O)[C@]12C [Example 9, (24S)-(25S)-3α,7α,12α,24,26-pentahydroxy-5β-cholestane]	126.5 ± 5.21 s	80%	101.2 ± 10.1 s	43.3 mmHg	88.1 mmHg	138 ± 8 IU/ℓ	441 ± 51 mg/dL	89 ± 41 mg/dL	125 ± 6.6 mg/dL	150 ± 8.9 mmHg	199 ± 5.4 mmHg	4.11 ± 0.44 × 10⁷	12.5 ± 2.44 mg
C[C@H](CC[C@H](O)[C@H](C)CO)[C@H]1CC[C@H]2[C@@H]3[C@H](O)C[C@@H]4C[C@H](O)CC[C@]4(C)[C@H]3C[C@H](O)[C@]12C [Example 10, (24S)-(25R) 3α,7α,12α,24,26-pentahydroxy-5β-cholestane]	125.1 ± 3.89 s	80%	111.1 ± 9.11 s	42.6 mmHg	87.5 mmHg	145 ± 7 IU/ℓ	465 ± 59 mg/dL	99 ± 29 mg/dL	133 ± 3.8 mg/dL	155 ± 9.5 mmHg	191 ± 7.2 mmHg	4.41 ± 0.54 × 10⁷	13.8 ± 2.85 mg
C[C@H](CC[C@@H](O)[C@@H](C)CO)[C@H]1CC[C@H]2[C@@H]3[C@H](O)C[C@@H]4C[C@H](O)CC[C@]4(C)[C@H]3C[C@H](O)[C@]12C [Example 11, (24R)-(25S)-3α,7α,12α,24,26-pentahydroxy-5β-cholestane]	121.1 ± 2.60 s	80%	103.0 ± 7.56 s	40.5 mmHg	86.1 mmHg	151 ± 15 IU/ℓ	433 ± 71 mg/dL	110 ± 33 mg/dL	187 ± 2.5 mg/dL	141 ± 9.1 mmHg	188 ± 3.8 mmHg	3.95 ± 0.64 × 10⁷	14.4 ± 2.01 mg
C[C@H](CO)[C@H](O)CC[C@@H](C)[C@H]1CC[C@H]2[C@@H]3[C@H](O)C[C@@H]4C[C@H](O)CC[C@]4(C)[C@H]3C[C@H](O)[C@]12C [Example 12, (24R)-(25R)-3α,7α,12α,24,26-pentahydroxy-5β-cholestane]	118.1 ± 3.33 s	90%	121.3 ± 3.21 s	41.1 mmHg	87.1 mmHg	141 ± 17 IU/ℓ	475 ± 75 mg/dL	115 ± 39 mg/dL	163 ± 3.8 mg/dL	138 ± 9.5 mmHg	173 ± 3.6 mmHg	3.80 ± 0.78 × 10⁷	12.2 ± 1.88 mg
C[C@H](CC[C@@H](O)C(CO)CO)[C@H]1CC[C@H]2[C@@H]3[C@H](O)C[C@@H]4C[C@H](O)CC[C@]4(C)[C@H]3C[C@H](O)[C@]12C [Illustrative Example 1, (24R)-(+)-3α,7α,12α,24,26,27-hexahydroxy-5β-cholestane]	155.4 ± 13.2 s	70%	159 ± 10.72 s	41.3 mmHg	98.6 mmHg	128 ± 10 IU/ℓ	390 ± 61 mg/dL	90 ± 16 mg/dL	177 ± 5.5 mg/dL	139 ± 8.5 mmHg	205 ± 2.1 mmHg	3.72 ± 0.55 × 10⁷	15.1 ± 1.98 mg
C[C@H](CC[C@@H](O)CCO)[C@H]1CC[C@H]2[C@@H]3[C@H](O)C[C@@H]4C[C@H](O)CC[C@]4(C)[C@H]3C[C@H](O)[C@]12C [Illustrative Example 2, 27-nor-(24R)-(+)-3α,7α,12α,24,26-pentahydroxy-5β-cholestane]	116.3 ± 4.86 s	80%	95.3 ± 11.12 s	42.1 mmHg	85.4 mmHg	141 ± 6 IU/ℓ	444 ± 61 mg/dL	101 ± 42 mg/dL	171 ± 4.7 mg/dL	145 ± 8.1 mmHg	200 ± 3.5 mmHg	3.62 ± 0.46 × 10⁷	13.4 ± 2.38 mg
